Data: patent US10005767B2, “Compositions and methods for inhibition of the JAK pathway” (Rigel Pharmaceuticals, Inc., priority 2009, dated 2018)
pIC50: −log10 of the molar value.

System: human primary T-cells, IL-2 stimulated proliferation (JAK-1 and JAK-3 dependent; reported as JAK3 activity)
Test: Human primary T-cell proliferation stimulated by IL-2 (Example 3)
Format: cell-based
Conditions: tested under conditions described in Example 3 (IL-2 stimulated human primary T-cell proliferation); read-out: ability to inhibit JAK3 activity, IC50 range (Table V)
Procedure, shortened: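 Peripheral-blood human T-cells pre-activated via TCR/CD28, IL-2-starved overnight, then cultured 72 h at 37 °C with compound in Yssel's medium containing IL-2 (80 U/mL in cell suspension). Proliferation read as viable-cell ATP by CellTiter-Glo luminescence; reduction versus control taken as JAK pathway inhibition.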

| SMILES | pIC50 |
| --- | --- |
| Cc1ccc(Nc2ncc(C)c(Nc3ccc4oc(=O)[nH]c4c3)n2)cc1Cl [Compound I-364, N2-(3-chloro-4-methyl)phenyl-5-methyl-N4-(2-oxo-2,3-dihydro-1,3-benzoxazol-5-yl)-2,4-pyrimidinediamine] | > 6.30 |
| Cc1cnc(Nc2cc(C)c(C)c(C)c2)nc1Nc1ccc2oc(=O)[nH]c2c1 [Compound I-365, N2-(3,4,5-trimethyl)phenyl-5-methyl-N4-(2-oxo-2,3-dihydro-1,3-benzoxazol-5-yl)-2,4-pyrimidinediamine] | > 6.30 |
| Cc1cnc(Nc2ccc(OC(F)(F)F)c(Cl)c2)nc1Nc1ccc2oc(=O)[nH]c2c1 [Compound I-366, N2-(3-chloro-4-trifluoromethoxy)phenyl-5-methyl-N4-(2-oxo-2,3-dihydro-1,3-benzoxazol-5-yl)-2,4-pyrimidinediamine] | > 6.30 |
| Cc1cnc(Nc2ccc(SC(F)(F)F)cc2)nc1Nc1ccc2oc(=O)[nH]c2c1 [Compound I-367, N2-(4-trifluoromethylthio)phenyl-5-methyl-N4-(2-oxo-2,3-dihydro-1,3-benzoxazol-5-yl)-2,4-pyrimidinediamine] | > 6.30 |
| Cc1cnc(Nc2cccc(F)c2)nc1Nc1ccc2oc(=O)[nH]c2c1 [Compound I-368, N2-(3-fluoro)phenyl-5-methyl-N4-(2-oxo-2,3-dihydro-1,3-benzoxazol-5-yl)-2,4-pyrimidinediamine] | > 6.30 |
| COc1c(C)cc(Nc2ncc(C)c(Nc3ccc4oc(=O)[nH]c4c3)n2)cc1C [Compound I-369, N2-(3,5-dimethyl-4-methoxy)phenyl-5-methyl-N4-(2-oxo-2,3-dihydro-1,3-benzoxazol-5-yl)-2,4-pyrimidinediamine] | > 6.30 |
| Cc1cnc(Nc2cc(C(N)=O)cc(C(F)(F)F)c2)nc1Nc1ccc2oc(=O)[nH]c2c1 [Compound I-370, N2-(3-carboxamide-5-trifluoromethyl)phenyl-5-methyl-N4-(2-oxo-2,3-dihydro-1,3-benzoxazol-5-yl)-2,4-pyrimidinediamine] | > 6.30 |
| COc1c(C(C)C)cc(Nc2ncc(C)c(Nc3ccc4oc(=O)[nH]c4c3)n2)cc1C(C)C [Compound I-371, N2-(3,5-diisopropyl-4-methoxy)phenyl-5-methyl-N4-(2-oxo-2,3-dihydro-1,3-benzoxazol-5-yl)-2,4-pyrimidinediamine] | 5.30 to 6.30 |
| Cc1cnc(Nc2cc(OC(C)C)cc(C(F)(F)F)c2)nc1Nc1ccc2oc(=O)[nH]c2c1 [Compound I-372, N2-(3-isopropoxy-5-trifluoromethyl)phenyl-5-methyl-N4-(2-oxo-2,3-dihydro-1,3-benzoxazol-5-yl)-2,4-pyrimidinediamine] | > 6.30 |
| COc1ccc(Nc2ncc(C)c(Nc3ccc4oc(=O)[nH]c4c3)n2)cc1C#N [Compound I-373, N2-(3-cyano-4-methoxy)phenyl-5-methyl-N4-(2-oxo-2,3-dihydro-1,3-benzoxazol-5-yl)-2,4-pyrimidinediamine] | > 6.30 |
| Cc1cnc(Nc2cc(C)c(F)c(C)c2)nc1Nc1ccc2oc(=O)[nH]c2c1 [Compound I-374, N2-(3,5-dimethyl-4-fluoro)phenyl-5-methyl-N4-(2-oxo-2,3-dihydro-1,3-benzoxazol-5-yl)-2,4-pyrimidinediamine] | > 6.30 |
| Cc1cnc(Nc2ccc(OC(F)(F)F)c(F)c2)nc1Nc1ccc2oc(=O)[nH]c2c1 [Compound I-376, N2-(3-fluoro-4-trifluoromethoxy)phenyl-5-methyl-N4-(2-oxo-2,3-dihydro-1,3-benzoxazol-5-yl)-2,4-pyrimidinediamine] | > 6.30 |
| Cc1cnc(Nc2cc(Cl)cc(OC(F)(F)F)c2)nc1Nc1ccc2oc(=O)[nH]c2c1 [Compound I-378, N2-(3-chloro-5-trifluoromethoxy)phenyl-5-methyl-N4-(2-oxo-2,3-dihydro-1,3-benzoxazol-5-yl)-2,4-pyrimidinediamine] | > 6.30 |
| Cc1cc(Nc2ncc(C)c(Nc3ccc4oc(=O)[nH]c4c3)n2)cc(OC(F)(F)F)c1 [Compound I-379, 5-methyl-N2-(3-methyl-5-trifluoromethoxy)phenyl-N4-(2-oxo-2,3-dihydro-1,3-benzoxazol-5-yl)-2,4-pyrimidinediamine] | > 6.30 |
| COc1cc(Nc2ncc(C)c(Nc3ccc4oc(=O)[nH]c4c3)n2)ccc1C#N [Compound I-380, N2-(4-cyano-3-methoxy)phenyl-5-methyl-N4-(2-oxo-2,3-dihydro-1,3-benzoxazol-5-yl)-2,4-pyrimidinediamine] | > 6.30 |
| COc1c(F)cc(Nc2ncc(C)c(Nc3ccc4oc(=O)[nH]c4c3)n2)cc1F [Compound I-381, N2-(3,5-difluoro-4-methoxy)phenyl-5-methyl-N4-(2-oxo-2,3-dihydro-1,3-benzoxazol-5-yl)-2,4-pyrimidinediamine] | > 6.30 |

| SMILES | pIC50 |
| --- | --- |
| Cc1cnc(Nc2ccc(CN3CCOCC3)cc2)nc1Nc1ccc2oc(=O)[nH]c2c1 [Compound I-382, 5-methyl-N2-(4-morpholinomethyl)phenyl-N4-(2-oxo-2,3-dihydro-1,3-benzoxazol-5-yl)-2,4-pyrimidinediamine] | > 6.30 |
| CCc1cc(Nc2ncc(C)c(Nc3ccc4oc(=O)[nH]c4c3)n2)cc(C#N)c1Cl [Compound I-383, N2-(4-chloro-3-cyano-5-ethyl)phenyl-5-methyl-N4-(2-oxo-2,3-dihydro-1,3-benzoxazol-5-yl)-2,4-pyrimidinediamine] | 5.30 to 6.30 |
| COCCOc1cc(Nc2ncc(C)c(Nc3ccc4oc(=O)[nH]c4c3)n2)cc(C(F)(F)F)c1 [Compound I-384, N2-[3-(2-methoxy)ethoxy-5-trifluoromethyl]phenyl-5-methyl-N4-(2-oxo-2,3-dihydro-1,3-benzoxazol-5-yl)-2,4-pyrimidinediamine] | > 6.30 |
| Cc1cnc(Nc2cc(C)c(OC(F)F)c(C)c2)nc1Nc1ccc2oc(=O)[nH]c2c1 [Compound I-385, N2-(4-difluoromethoxy-3,5-dimethyl)phenyl-5-methyl-N4-(2-oxo-2,3-dihydro-1,3-benzoxazol-5-yl)-2,4-pyrimidinediamine] | > 6.30 |
| Cc1cnc(Nc2ccc(F)c(OC(C)(C)C(N)=O)c2)nc1Nc1ccc2oc(=O)[nH]c2c1 [Compound I-386, N2-[3-(1-aminocarbonyl-1-methyl)ethoxy-4-fluoro]phenyl-5-methyl-N4-(2-oxo-2,3-dihydro-1,3-benzoxazol-5-yl)-2,4-pyrimidinediamine] | > 6.30 |
| Cc1cc(Nc2ncc(C)c(Nc3ccc4oc(=O)[nH]c4c3)n2)ccc1OC(F)F [Compound I-387, N2-(4-difluoromethoxy-3-methyl)phenyl-5-methyl-N4-(2-oxo-2,3-dihydro-1,3-benzoxazol-5-yl)-2,4-pyrimidinediamine] | > 6.30 |
| Cc1cnc(Nc2cc(F)c(OC(F)F)c(F)c2)nc1Nc1ccc2oc(=O)[nH]c2c1 [Compound I-388, N2-(3,5-difluoro-4-difluoromethoxy)phenyl-5-methyl-N4-(2-oxo-2,3-dihydro-1,3-benzoxazol-5-yl)-2,4-pyrimidinediamine] | > 6.30 |
| Cc1cnc(Nc2cc(C)c(OC(C)(C)C(N)=O)c(C)c2)nc1Nc1ccc2oc(=O)[nH]c2c1 [Compound I-389, N2-[4-(1-aminocarbonyl-1-methyl)ethoxy-3,5-dimethyl]phenyl-5-methyl-N4-(2-oxo-2,3-dihydro-1,3-benzoxazol-5-yl)-2,4-pyrimidinediamine] | > 6.30 |
| Cc1ccc(Nc2ncc(C)c(Nc3ccc4oc(=O)[nH]c4c3)n2)cc1OC(F)F [Compound I-390, N2-(3-difluoromethoxy-4-methyl)phenyl-5-methyl-N4-(2-oxo-2,3-dihydro-1,3-benzoxazol-5-yl)-2,4-pyrimidinediamine] | > 6.30 |
| Cc1cc(Nc2ncc(C)c(Nc3ccc4oc(=O)[nH]c4c3)n2)ccc1OC(C)(C)C(N)=O [Compound I-391, N2-[4-(1-aminocarbonyl-1-methyl)ethoxy-3-methyl]phenyl-5-methyl-N4-(2-oxo-2,3-dihydro-1,3-benzoxazol-5-yl)-2,4-pyrimidinediamine] | > 6.30 |
| Cc1ccc(Nc2ncc(C)c(Nc3ccc4oc(=O)[nH]c4c3)n2)cc1OC(C)(C)C(N)=O [Compound I-392, N2-[3-(1-aminocarbonyl-1-methyl)ethoxy-4-methyl]phenyl-5-methyl-N4-(2-oxo-2,3-dihydro-1,3-benzoxazol-5-yl)-2,4-pyrimidinediamine] | > 6.30 |
| Cc1cnc(Nc2cc(C)c(Cl)c(C)c2)nc1Nc1ccc2oc(=O)[nH]c2c1 [Compound I-394, N2-(4-chloro-3,5-dimethyl)phenyl-5-methyl-N4-(2-oxo-2,3-dihydro-1,3-benzoxazol-5-yl)-2,4-pyrimidinediamine] | > 6.30 |
| Cc1cnc(Nc2cc(F)c(OC(C)(C)C(N)=O)c(F)c2)nc1Nc1ccc2oc(=O)[nH]c2c1 [Compound I-395, N2-[4-(1-aminocarbonyl-1-methyl)ethoxy-3,5-difluoro]phenyl-5-methyl-N4-(2-oxo-2,3-dihydro-1,3-benzoxazol-5-yl)-2,4-pyrimidinediamine] | > 6.30 |
| COC(c1cccc(Nc2ncc(C)c(Nc3ccc4oc(=O)[nH]c4c3)n2)c1)C(F)(F)F (centres unmarked) [Compound I-396, N2-[3-(1-methoxy-2,2,2-trifluoroethyl)]phenyl-5-methyl-N4-(2-oxo-2,3-dihydro-1,3-benzoxazol-5-yl)-2,4-pyrimidinediamine] | > 6.30 |
| Cc1ccc(Nc2ncc(C)c(Nc3ccc4oc(=O)[nH]c4c3)n2)cc1OC(C)(C)C#N [Compound I-397, N2-[3-(1-cyano-1-methyl)ethoxy-4-methyl]phenyl-5-methyl-N4-(2-oxo-2,3-dihydro-1,3-benzoxazol-5-yl)-2,4-pyrimidinediamine] | > 6.30 |
| Cc1cnc(Nc2ccc(F)c(F)c2)nc1Nc1ccc2oc(=O)[nH]c2c1 [Compound I-398, N2-(3,4-difluoro)phenyl-5-methyl-N4-(2-oxo-2,3-dihydro-1,3-benzoxazol-5-yl)-2,4-pyrimidinediamine] | > 6.30 |
